Earlier results on 6 compounds are cited in US20040235935A1, “Oral pharmaceutical composition containing a statin derivative” (priority 2001, published 2004).

Assay in series [1]: not given
This is another data set of the same source.

The conditions of series [2]: for Vsol = volume of water required to completely dissolve a 20 mg dose: solubility at pH 5.
Assay in series [3]: not given
The source holds these as a separate data set.

[4] abbreviates: healthy humans, oral dose 20 mg.
The mark [5] stands for this setting: healthy humans, oral dose 40 mg.

The structures appear in SMILES notation. In brackets after ≈: the same amount, converted by molar mass. Read-outs that look alike come from different tables or passages of the source.

Regarding `CC(C)n1c(/C=C/C(O)CC(O)CC(=O)O)c(-c2ccc(F)cc2)c2ccccc21` (stereo not drawn) [Fluvastatin, fluvastatin], the “Peff = effective membrane permeability” value (healthy humans) was 240 ×10⁻⁶ cm/s. In addition, the “F = bioavailability” value (healthy humans, oral) was 10-35%. In addition, under setting [4], the “AUC = area under plasma concentration-time curve” value (“AUC = area” for short) was 167 ng·h/mL and the “Cmax = maximum plasma drug concentration” value is 181 ng/mL. The pKa in series [1] is reported as 5.5. Further, the Solubility in water in series [2] (at pH 6) was 2000 µg/mL (≈ 4860 µM).
Take `CC[C@H](C)C(=O)O[C@H]1C[C@H](O)C=C2C=C[C@H](C)[C@H](CC[C@@H](O)C[C@@H](O)CC(=O)O)[C@H]21` [Pravastatin Hydroxy acid, pravastatin]: where the note is “healthy humans”, the “EH = liver extraction ratio” value was 45% and the “fa = fraction of the administered dose absorbed” value was “˜34%”. In addition, under setting [4], the “AUC = area” value was 90.2 ng·h/mL and the “Cmax = maximum plasma drug concentration” value is 38.4 ng/mL. In addition, in series [1], the pKa is reported as 5.5. In addition, in series [2] (at pH 5), the Solubility in water is 300000 µg/mL (≈ 707000 µM).
In the case of `CCC(C)C(=O)OC1CC(C)C=C2C=CC(C)C(CCC(O)CC(O)CC(=O)[O-])C21.[Na+]` (stereo not drawn) [Lovastatin Hydroxy acid], the “tmax = time to Cmax” value (human, in vivo, po, 20 mg) is recorded as 2.8 h. Besides, the “fa = fraction of the administered dose absorbed” value (in vivo) was “˜31%”. Moreover, in series [1], the pKa is 5.5.
`CCC(C)(C)C(=O)O[C@H]1C[C@@H](C)C=C2C=C[C@H](C)[C@H](CC[C@@H](O)C[C@@H](O)CC(=O)O)[C@H]21` [Simvastatin Hydroxy acid]: under setting [5], the “AUC = area” value was 58.1 ng·h/mL and the “Cmax = maximum plasma drug concentration” value is 58.1 ng/mL. The pKa in series [1] is recorded as 5.5. Also, in series [3] (from the partition coefficients at pH 7), the “times more readily dissolved in octanol than in water” value was 126 times.
Consider `CC[C@H](C)C(=O)O[C@H]1C[C@@H](C)C=C2C=C[C@H](C)[C@H](CC[C@@H]3C[C@@H](O)CC(=O)O3)[C@H]21` [Lovastatin Lactone, lovastatin], for which, in series [2], the “Vsol = volume of water required to completely dissolve a 20 mg dose” value was 15 385 ml. In addition, the Solubility in water in series [2] (at pH 5) was 1.3 µg/mL (≈ 3.21 µM). Also, the “D = partition coefficient (logarithm of partition ratio between octanol and water at pH 7)” value in series [3] (pH 7) is 4.3.
For `CC[C@H](C)C(=O)O[C@H]1C[C@H](O)C=C2C=C[C@H](C)[C@H](CC[C@@H]3C[C@@H](O)CC(=O)O3)[C@H]21` [Pravastatin Lactone], the “Vsol = volume of water required to completely dissolve a 20 mg dose” value in series [2] was 111 mL. In series [2] (at pH 5), the Solubility in water is 180 µg/mL (≈ 443 µM).

For orientation: pKa means the negative logarithm of the acid dissociation constant.
